Data taken from PubChem BioAssay AID330 (DTP/NCI, 2004).
Where “and” joins values, the source holds several entries; their conditions need not be identical. Equal entries are not always repeated. Inconclusive results and toxic doses are left out.

Test system: P388 leukemia ip, CD2F1 mice, survival T/C
Test: NCI In Vivo Anticancer Drug Screen. Data for tumor model P388 Leukemia (intraperitoneal) in CD2F1 (CDF1) mice
Details: endpoint: median survival time, higher = longer survival
Summary of the method: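 Mice carrying the transplanted tumor received test compound or vehicle. Survival was recorded in each group, and the value is the treated-group measurement divided by that of the vehicle-treated control group.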

[1] = dose: 50.0 mg/kg/injection, schedule: Q01DX009 (ip), vehicle: Klucel (hydroxypropylcellulose) (HPC)
[2] = dose: 100.0 mg/kg/injection, schedule: Q01DX009 (ip), vehicle: Klucel (hydroxypropylcellulose) (HPC)
[3] = dose: 200.0 mg/kg/injection, schedule: Q01DX009 (ip), vehicle: Klucel (hydroxypropylcellulose) (HPC)

In the case of `O=c1cc(-c2ccc(O)cc2)oc2cc(O)c(C3OC(CO)C(O)C(O)C3OC3OC(CO)C(O)C(O)C3O)c(O)c12` (configuration not stated), the T/C (dose: 25.0 mg/kg/injection, schedule: Q01DX009 (ip), vehicle: Klucel (hydroxypropylcellulose) (HPC)) is reported as 102 % of control, the T/C [1] is reported as 107 % of control and the T/C [2] is reported as 105 % of control. The T/C [3] was 99 % of control.

In the case of `CC(=O)SC12CCCN1C(=O)C1CCCN1C2=O` (configuration not stated), the T/C (dose: 100.0 mg/kg/injection, schedule: Q04DX002 (ip), vehicle: saline) is reported as 100 % of control, the T/C (dose: 200.0 mg/kg/injection, schedule: Q04DX002 (ip), vehicle: saline) is reported as 111 % of control and the T/C (dose: 400.0 mg/kg/injection, schedule: Q04DX002 (ip), vehicle: saline) is reported as 117 % of control.

`CC(=O)[C@]1(O)Cc2c(O)c3c(c(O)c2[C@@H](OC2CC(N)C(O)C(C)O2)C1)C(=O)c1c(OCC(C)C)cccc1C3=O` (some centres not stated) was tested, and the T/C (dose: 3.13 mg/kg/injection, schedule: Q04DX003 (ip), vehicle: water) was 107 % of control and 110 % of control, the T/C (dose: 6.25 mg/kg/injection, schedule: Q04DX003 (ip), vehicle: water) was 105 % of control and 119 % of control and the T/C (dose: 12.5 mg/kg/injection, schedule: Q04DX003 (ip), vehicle: water) was 101 % of control. For the same compound, the T/C (dose: 25.0 mg/kg/injection, schedule: Q04DX003 (ip), vehicle: water) was 121 % of control and the T/C (dose: 50.0 mg/kg/injection, schedule: Q04DX003 (ip), vehicle: water) was 101 % of control and 89 % of control.

For `CNC(=N)c1ccc(NC(=N)c2ccc(NC(=N)c3ccc(NC(=N)c4ccc(C(=N)NC)cc4)cc3)cc2)cc1`, the T/C (dose: 9.0 mg/kg/injection, schedule: Q01DX009 (ip), vehicle: saline with Tween-80) was 154 % of control, the T/C (dose: 13.0 mg/kg/injection, schedule: Q01DX009 (ip), vehicle: saline with Tween-80) was 190 % of control and the T/C (dose: 20.0 mg/kg/injection, schedule: Q01DX009 (ip), vehicle: saline with Tween-80) was 254 % of control.

`Nc1ncnc2[nH]c(=O)[nH]c12` was tested, and the T/C (dose: 25.0 mg/kg/injection, schedule: Q04DX003 (ip), vehicle: saline) was 95 % of control, the T/C (dose: 50.0 mg/kg/injection, schedule: Q04DX003 (ip), vehicle: saline) was 104 % of control and the T/C (dose: 100.0 mg/kg/injection, schedule: Q04DX003 (ip), vehicle: saline) was 104 % of control.

For `Cc1onc(-c2ccccc2Cl)c1C(=O)SCC(=O)Nc1cc(C(F)(F)F)cc(C(F)(F)F)c1`, the T/C (dose: 50.0 mg/kg/injection, schedule: Q01DX009 (ip), vehicle: saline with Tween-80) was 98 % of control, the T/C (dose: 100.0 mg/kg/injection, schedule: Q01DX009 (ip), vehicle: saline with Tween-80) was 100 % of control and the T/C (dose: 200.0 mg/kg/injection, schedule: Q01DX009 (ip), vehicle: saline with Tween-80) was 89 % of control.

`O=C(Sc1ccccc1)N1CCN(C(=O)Sc2ccccc2)CC1` was tested, and the T/C [1] was 100 % of control, the T/C [2] was 100 % of control and the T/C [3] was 109 % of control.

In the case of `Cc1ccc2c(c1)c(N=NC(N)=S)c(O)n2C1OC(CO)C(O)C(O)C1O` (configuration not stated), the T/C (dose: 32.0 mg/kg/injection, schedule: Q01DX009 (ip), vehicle: saline with Tween-80) is reported as 102 % of control, the T/C (dose: 64.0 mg/kg/injection, schedule: Q01DX009 (ip), vehicle: saline with Tween-80) is reported as 95 % of control and the T/C (dose: 128.0 mg/kg/injection, schedule: Q01DX009 (ip), vehicle: saline with Tween-80) is reported as 98 % of control.

In the case of `O=C(O)CCc1cccnc1`, the T/C (dose: 266.0 mg/kg/injection, schedule: Q01DX009 (ip), vehicle: saline with Tween-80) is reported as 105 % of control and the T/C (dose: 400.0 mg/kg/injection, schedule: Q01DX009 (ip), vehicle: saline with Tween-80) is reported as 115 % of control.

In the case of `N/C(CC(=O)Nc1ccc(F)cc1)=N\O`, the T/C (dose: 60.0 mg/kg/injection, schedule: Q01DX005 (ip), vehicle: saline with Tween-80) is reported as 108 % of control, the T/C (dose: 120.0 mg/kg/injection, schedule: Q01DX005 (ip), vehicle: saline with Tween-80) is reported as 102 % of control and the T/C (dose: 240.0 mg/kg/injection, schedule: Q01DX005 (ip), vehicle: saline with Tween-80) is reported as 100 % of control.

In the case of `CS(=O)(=O)N(CC(=O)O)Cc1ccc(Cl)c(Cl)c1`, the T/C (dose: 25.0 mg/kg/injection, schedule: Q04DX003 (ip), vehicle: Klucel + Tween-80) is reported as 92 % of control, the T/C (dose: 50.0 mg/kg/injection, schedule: Q04DX003 (ip), vehicle: Klucel + Tween-80) is reported as 100 % of control and the T/C (dose: 100.0 mg/kg/injection, schedule: Q04DX003 (ip), vehicle: Klucel + Tween-80) is reported as 98 % of control. The T/C (dose: 200.0 mg/kg/injection, schedule: Q04DX003 (ip), vehicle: Klucel + Tween-80) was 91 % of control.

In the case of `CCC(c1ccc(OCCS(=O)(=O)Oc2ccc(C)cc2)cc1)C(CC)c1ccc(OCCS(=O)(=O)Oc2ccc(C)cc2)cc1` (configuration not stated), the T/C (dose: 50.0 mg/kg/injection, schedule: Q01DX009 (ip), vehicle: saline) is reported as 106 % of control, the T/C (dose: 100.0 mg/kg/injection, schedule: Q01DX009 (ip), vehicle: saline) is reported as 87 % of control and the T/C (dose: 200.0 mg/kg/injection, schedule: Q01DX009 (ip), vehicle: saline) is reported as 95 % of control.

`Fc1ccc(NC(=S)SCc2ccc(Cl)c(Cl)c2)cc1` was tested, and the T/C (dose: 50.0 mg/kg/injection, schedule: Q01DX009 (ip), vehicle: suspension in saline) was 90 % of control, the T/C (dose: 100.0 mg/kg/injection, schedule: Q01DX009 (ip), vehicle: suspension in saline) was 90 % of control and the T/C (dose: 200.0 mg/kg/injection, schedule: Q01DX009 (ip), vehicle: suspension in saline) was 102 % of control.
